Laboratory results reported in patent US5514694A, “Peptidyl ketoamides” (Georgia Tech Research Corp, priority 1993, dated 1996).
pIC50, pKi: −log10 of the molar value. Read-outs that look alike come from different tables or passages of the source.

Tests used:
Type in all cases: biochemical
[1] = biological target: T1, human leukocyte elastase (HLE) (Homo sapiens, UniProt P08246); test: HLE inhibition, MeO-Suc-Ala-Ala-Pro-Val-NA hydrolysis; details: for pIC50: Table 4, Z-Leu--AA--CONH-R; for pKi: Table 4, in brackets under the IC50
T1 sequence (P08246 30-267): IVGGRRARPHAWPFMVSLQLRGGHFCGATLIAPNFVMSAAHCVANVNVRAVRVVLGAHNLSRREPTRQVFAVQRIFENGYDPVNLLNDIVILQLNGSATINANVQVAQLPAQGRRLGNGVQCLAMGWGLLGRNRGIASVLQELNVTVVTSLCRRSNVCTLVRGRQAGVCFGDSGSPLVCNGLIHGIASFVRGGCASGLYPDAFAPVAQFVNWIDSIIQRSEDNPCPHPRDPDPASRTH
Description: (§1) Peptide α-ketoamides were assayed as reversible enzyme inhibitors. Various concentrations of inhibitors in Me2 SO were added to the assay mixture which contained buffer and substrate. The reaction was started by the addition of the enzyme and the hydrolysis rates were followed spectrophotometrically or fluorimetrically.
(§2) A 0.1M Hepes, 0.5M NaCl, pH 7.5 buffer was utilized for human leukocyte elastase (HLE), porcine pancreatic elastase (PPE), chymotrypsin and cathepsin G. A 0.1 Hepes, 0.01 M CaCl2, pH 7.5 buffer was utilized for trypsin, plasmin, and coagulation enzymes. A 50 mM Tris.HCl, 2 mM EDTA, 5 mM cysteine, pH 7.5 was used as a buffer for papain. A 88 mM KH2 PO4, 12 mM Na2 HPO4, 1.33 mM EDTA, 2.7 mM cysteine, pH 6.0 solution was used as a buffer for cathepsin B. A 20 mM Hepes, 10 mM CaCl2, 10 mM mercatoethanol, pH 7.2 buffer was utilized for calpain I and calpain II.
(§3) HLE and PPE were assayed with MeO-Suc-Ala-Ala-Pro-Val-NA and Suc-Ala-Ala-Ala-NA, respectively Nakajima et al., J. Biol. Chem. 254, 4027-4032 (1979); incorporated herein by reference!. Human leukocyte cathepsin G and chymotrypsin Aα were assayed with Suc-Val-Pro-Phe-NA Tanaka et al., Biochemistry 24, 2040-2047 (1985); incorporated herein by reference!. The hydrolysis of peptide 4-nitroanilides was measured at 410 nm ε410 =8800 M^-1 cm^-1; Erlanger et al., Arch. Biochem. Biophys. 95, pp 271-278 (1961); incorporated herein by reference!. Trypsin, thrombin, human plasma kallikrein, porcine pancreatic kallikrein, human factor XIa, and human plasmin were assayed with Z-Arg-SBzl or Z-Gly-Arg-SBu-i McRae et al., Biochemistry 20, 7196-7206 (1981); incorporated herein by reference!. All peptide thioester hydrolysis rates were measured with assay mixtures containing 4,4'-dithiodipyridine ε324 =19800 M^-1 cm^-1; Grasetti & Murray, Arch. Biochem. Biophys. 119, 41-49 (1967); incorporated herein by reference!.

[2] = biological target: T2, Calpain I from human erythrocytes (Homo sapiens, UniProt P07384); test: Calpain I inhibition, Suc-Leu-Tyr-AMC hydrolysis (KI); details: read-out: KI Cal I
T2 construct: Calpain I was purified from human erythrocytes; from tissue; host or cells: human erythrocytes
T2 sequence (P07384 1-714): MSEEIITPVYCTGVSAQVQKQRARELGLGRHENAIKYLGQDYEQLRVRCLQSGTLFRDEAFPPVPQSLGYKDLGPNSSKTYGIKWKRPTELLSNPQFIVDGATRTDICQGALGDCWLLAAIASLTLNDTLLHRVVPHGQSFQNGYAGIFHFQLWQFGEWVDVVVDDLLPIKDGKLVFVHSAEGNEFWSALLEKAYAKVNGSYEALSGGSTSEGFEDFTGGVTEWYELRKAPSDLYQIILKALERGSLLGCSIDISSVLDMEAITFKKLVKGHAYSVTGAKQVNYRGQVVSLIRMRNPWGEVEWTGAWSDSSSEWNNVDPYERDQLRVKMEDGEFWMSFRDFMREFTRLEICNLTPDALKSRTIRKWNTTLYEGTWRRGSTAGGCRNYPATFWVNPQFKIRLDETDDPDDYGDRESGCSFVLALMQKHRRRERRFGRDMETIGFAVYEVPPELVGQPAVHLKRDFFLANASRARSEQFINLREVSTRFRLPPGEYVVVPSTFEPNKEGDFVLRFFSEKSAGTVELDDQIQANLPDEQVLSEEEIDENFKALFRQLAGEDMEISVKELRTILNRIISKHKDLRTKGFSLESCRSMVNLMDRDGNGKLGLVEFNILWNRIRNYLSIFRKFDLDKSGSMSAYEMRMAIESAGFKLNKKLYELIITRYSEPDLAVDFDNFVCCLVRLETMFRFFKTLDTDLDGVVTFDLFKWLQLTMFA
T2 sequence (P04632 1-268 partner): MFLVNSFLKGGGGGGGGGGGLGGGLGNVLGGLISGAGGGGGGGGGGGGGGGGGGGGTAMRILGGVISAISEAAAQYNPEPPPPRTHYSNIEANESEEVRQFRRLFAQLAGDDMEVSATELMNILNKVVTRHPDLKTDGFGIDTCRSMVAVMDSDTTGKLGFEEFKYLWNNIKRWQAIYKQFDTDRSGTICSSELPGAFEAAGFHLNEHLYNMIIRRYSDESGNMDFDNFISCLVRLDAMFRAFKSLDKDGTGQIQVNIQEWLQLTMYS
Procedure, shortened: (§4)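 Reversible KI values came from Lineweaver-Burk or Dixon plots of rates at varied substrate and inhibitor (in Me2SO) levels, with reactions started by enzyme. Calpains (human erythrocyte I, rabbit muscle II) hydrolysed Suc-Leu-Tyr-AMC in 25 mM Tris pH 8.0, 10 mM CaCl2 (ex 380/em 460 nm). Cathepsin B used Bz-Phe-Val-Arg-pNA (20 mM acetate pH 5.2, 0.5 mM DTT) or Z-Arg-Arg-AFC.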

[3] = biological target: T3, Human leukocyte cathepsin G (Homo sapiens, UniProt P08311); test: Cathepsin G inhibition, Suc-Val-Pro-Phe-NA hydrolysis; details: for pIC50: Table 4, Z-Leu--AA--CONH-R
T3 sequence (P08311 21-255): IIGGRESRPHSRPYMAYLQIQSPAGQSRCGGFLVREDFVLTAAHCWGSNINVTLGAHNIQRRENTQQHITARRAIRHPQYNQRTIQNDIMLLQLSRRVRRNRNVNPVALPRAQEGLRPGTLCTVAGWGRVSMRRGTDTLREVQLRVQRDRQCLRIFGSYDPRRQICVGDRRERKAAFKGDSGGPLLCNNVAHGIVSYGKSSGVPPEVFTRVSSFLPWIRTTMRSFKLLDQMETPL
Description: as §1, §2, §3

calpain II from rabbit = test: Calpain II inhibition, Suc-Leu-Tyr-AMC hydrolysis (KI); details: Table 2, Z-Leu--AA--CONH--CH2 CH(OH)-R; read-out: KI Cal II
Procedure, shortened: as §4

cathepsin B = biological target: T4, cathepsin B (Homo sapiens, UniProt P07858); test: Cathepsin B inhibition (KI); details: Table 2, Z-Leu--AA--CONH--CH2 CH(OH)-R; read-out: KI Cat B
T4 construct: purchased Sigma
Description: HEPES, heparin, and A23187 were obtained from Calbiochem. Suc-Leu-Tyr-AMC and chromogenic substrates were obtained from Sigma. Calpain I was purified from human erythrocytes according to the method of Kitahara (Kitahara et al., J. Biochem. 95, 1759-1766) omitting the Blue-Sepharose step. Calpain II from rabbit muscle and cathepsin B were purchased from Sigma. Papain was purchased from Calbiochem.
as §1
Calpain I from human erythrocytes and calpain II from rabbit were assayed using Suc-Leu-Tyr-AMC Sasaki et al., J. Biol. Chem. 259, 12489-12494 (1984); incorporated herein by reference!, and the AMC (7-amino-4-methylcoumarin) release was followed fluorimetrically (excitation at 380 nm, and emmision at 460 nm). Calpains were assayed in 25 mM Tris pH=8.0, 10 mM CaC12. Fluorescence was followed using a Gilson FL-1A fluorometer or a Perkin-Elmer 203 Fluorescence spectrometer. Cathepsin B was assayed in 20 mM sodium acetate pH=5.2, 0.5 mM dithiothreitol using Bz-Phe-Val-Arg-p-nitroanilide as substrate. Alternately, cathepsin B was assayed with Z-Arg-Arg-AFC Barrett and Kirschke, Methods Enzymol. 80, 535-561 (1981); incorporated herein by reference!, and the AFC (7-amino-4-trifluoromethylcoumarin) release was followed fluorimetrically (excitation at 400 nm and emmision at 505 nm). Papain was assayed in 100 mM KPO4, 1 mM EDTA, 2.5 mM cysteine pH=6.0 using Bz-Arg-AMC or Bz-Arg-NA Kanaoka et al., Chem. Pharm. Bull. 25, 3126-3128 (1977); incorporated herein by reference! as a substrate. The AMC (7-amino-4-methylcoumarin) release was followed fluorimetrically (excitation at 380 nm, and emmision at 460 nm). Enzymatic hydrolysis rates were measured at various substrate and inhibitor concentrations, and KI values were determined by either Lineweaver-Burk plots or Dixon plots.
as §2

[4] = Table 2, Z-Leu--AA--CONH--CH2 CH(OH)-R

Row | Molecule | pIC50 [1] | pKi [1] | pKi [2, 4] | pIC50 [3] | pKi ([2]; Table 1, Z-Leu--AA--CONHR) | pKi (calpain II from rabbit) | pKi (cathepsin B) | pKi ([3]; Table 4, in brackets under the IC50, read-out: KI Cat G)
1 | CC[C@H](NC(=O)[C@H](CC(C)C)NC(=O)OCc1ccccc1)C(=O)C(=O)NCC(O)c1ccc(N(C)C)cc1 (stereo partly drawn) [Z-Leu-Abu-CONH--CH2 CH(OH)C6 H4 (4-N(CH3)2)] | 4.74 | 4.72 | 6.48 | < 3.69 |  |  |  | 
2 | CCC(NC(=O)C(CC(C)C)NC(=O)OCc1ccccc1)C(=O)C(=O)NCC(O)c1cccc(C(F)(F)F)c1 (stereo not drawn) [Z-Leu-Abu-CONH-CH2 CH(OH)-C6 H4 (3-CF3), Z-Leu-Abu-CONH--CH2 CH(OH)C6 H4 (3-CF3)] | 4.96 | 5.05 | 6.46 | < 3.69 |  |  |  | 
3 | CC(C)CC(NC(=O)OCc1ccccc1)C(=O)NC(Cc1ccccc1)C(=O)C(=O)NCCCN1CCOCC1 (stereo not drawn) [Z-Leu-Phe-CONH-(CH2)3 -4-morpholinyl, Z-Leu-Phe-CONH--(CH2)3 -4-Morpholinyl] | < 3.65 |  |  | 3.87 | 6.66 |  |  | 
4 | CC(C)C[C@H](NC(=O)OCc1ccccc1)C(=O)N[C@@H](Cc1ccccc1)C(=O)C(=O)NCC(O)c1ccc(N(C)C)cc1 (stereo partly drawn) [Z-Leu-Phe-CONH--CH2 CH(OH)C6 H4 (4-N(CH3)2)] | 4.55 |  | 6.21 | 4.24 |  |  |  | 
5 | CC(C)C[C@H](NC(=O)OCc1ccccc1)C(=O)N[C@@H](Cc1ccccc1)C(=O)C(=O)NCC(O)c1cccc(Oc2cccc(C(F)(F)F)c2)c1 (stereo partly drawn) [Z-Leu-Phe-CONH--CH2 CH(OH)C6 H4 -3-OC6 H4 (3-CF3)] | 4.15 |  | 6.74 | 4.10 |  |  |  | 
6 | CC(C)C[C@H](NC(=O)OCc1ccccc1)C(=O)N[C@@H](Cc1ccccc1)C(=O)C(=O)NCC(O)c1ccccc1 (stereo partly drawn) [Z-Leu-Phe-CONH-CH2 CH(OH)-Ph, Z-Leu-Phe-CONH--CH2 CH(OH)Ph] | 4.36 |  | 5.89 | 3.99 |  | 7.30 | 5.68 | 
7 | CCCCNC(=O)C(=O)C(Cc1ccccc1)NC(=O)C(CC(C)C)NC(=O)OCc1ccccc1 (stereo not drawn) [Z-Leu-Phe-CONH-n-Bu] | 4.80 | 4.96 |  | 4.17 |  |  |  | 5.31
8 | CCCNC(=O)C(=O)C(Cc1ccccc1)NC(=O)C(CC(C)C)NC(=O)OCc1ccccc1 (stereo not drawn) [Z-Leu-Phe-CONH-n-Pr] | 4.36 |  |  | 4.19 |  |  |  | 
9 | CCC(C)NC(=O)C(=O)C(Cc1ccccc1)NC(=O)C(CC(C)C)NC(=O)OCc1ccccc1 (stereo not drawn) [Z-Leu-Phe-CONH-sec-Bu] | 4.30 |  |  | 3.89 |  |  |  | 
10 | Z-Leu-Phe-CONH--CH2 CH(OH)C6 H4 (4-OPh) [Z-Leu-Phe-CONH-CH2 CH(OH)-C6 H4 (4-OPh)] | 4.49 |  |  | < 3.99 |  |  |  | 
